Key:
[1] = target: MMK1 protein kinase (Vicia faba, UniProt A0AAV1B7B8); experiment: MMK1 protein kinase activity; format: biochemical
Description: Protein extraction and purification of pant CDK by binding to p13^suc1-beads or immunopurification with an antibody specific to the cdc2a-MS protein was carried out as described previously (Bögre et al. 1997, Plant Physiol. 113, 1997, 841-852). The MMK1 protein kinase was purified with a specific antibody from Vicia faba extracts as described by Bögre et al. 1997a, Plant Cell 9, 75-83). Protein kinase activity was measures as described above in Example 20. The quantification of radioactivity incorporated into histone H1 or myelin basic protein was undertaken using phosphoimager (FIG. 2).

[2] = tested on: CEM (human lymphoblastoid leukemia); experiment: In vitro cytotoxic activity, Calcein AM; format: cell-based; settings: Homo sapiens, 72 h, three days
Outline: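 CEM cells were seeded at 10^4/well in DMEM + 10% FBS and exposed to six concentrations from 200 to 0.2 μM, in triplicate, for 3 days at 37 °C and 5% CO2. Viable cells were then measured by Calcein AM fluorescence after 1 h loading.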

[3] = tested on: normal human lymphocytes; experiment: Immunosuppressive activity, 3H-thymidine incorporation in concanavalin A activated lymphocytes; format: cell-based; settings: Lymphocyte, 72 hours, [3H]-TdR, read-out: Human lymphocytes ED50
Description: Human heparinized peripheral blood was obtained from healthy volunteers by cubital vein punction. The blood was diluted in PBS (1:3) and mononuclear cells were separated by centrifugation in Ficoll-Hypaque density gradient (Pharmacia, 1.077 g/ml) at 2200 rpm for 30 minutes. Following centrifugation, lymphocytes were washed in PBS and resuspended in cell culture medium (RMPI 1640, 2 mM glutamine, 100 U/ml penicillin, 100 μg/ml streptomycin, 10% fetal calf serum and sodium bicarbonate).
The cells were diluted at target density of 1.100.000 cells/ml were added by pipette (180 μl) into 96/well microtiter plates. Four-fold dilutions of the intended test concentration were added at time zero in 20 μl aliquots to the microtiter plate wells. Usually, test compound was evaluated at six 4-fold dilutions. In routine testing, the highest well concentration was 266.7 μM. All drug concentrations were examined in duplicates. All wells with exception of unstimulated controls were activated with 50 μl of concanavalin A (25 μg/ml). Incubations of cells with test compounds lasted for 72 hours at 37° C., in 5% CO2 atmosphere and 100% humidity. At the end of incubation period, the cells were assayed by using the [^3H]-TdR:
Cell cultures were incubated with 0.5 μCi (20 μl of stock solution […]) per well for 6 hours at 37° C. and 5% CO2. The automated cell harvester was used to lyse cells in water and adsorb the DNA onto glass-fiber filters in the format of microtiter plate. The DNA incorporated [^3H]-TdR was retained on the filter while unincorporated material passes through. The filters were dried at room temperature overnight, sealed into a sample bag with 10-12 ml of scintillant. The amount of [^3H]-TdR present in each filter (in cpm) was determined by scintillation counting in a Betaplate liquid scintillation counter. The effective dose of immunosuppressant (ED) was calculated using the following equation: ED=(CCPMdrug exposed well/mean CCPMcontrol wells)×100%.

[4] = tested on: B16; experiment: In vitro cytotoxic activity, Calcein AM; format: cell-based; settings: Mus musculus, B16, 72 h, three days
[5] = tested on: human diploid fibroblasts (HCA cells); experiment: Inhibition of senescence, β-galactosidase staining of fibroblasts; format: cell-based; settings: for SENESCENT CELLS (%) HCA25: HCA cells passage 25, β-galactosidase staining; for SENESCENT CELLS (%) HCA45: HCA cells passage 45, β-galactosidase staining; for SENESCENT CELLS (%) HCA80: HCA cells passage 80, β-galactosidase staining
Description: In this example, human diploid fibroblasts (HCA cells of various passage levels: passage 25—designated HCA25; passage 45—designated HCA45; passage 80—designated HCA80) were stained for β-galactosidase activity. The medium present on cultured cells was removed, the cells were washed twice in […], and fixed in 2-3 ml of fixing solution comprised of a 2% formaldehyde and 0.2% glutaraldehyde in PBS. The cells were incubated at room temperature for 5 minutes, then washed twice with PBS. The cells were then incubated at 37° C. […] In this experiment, senescent cells, but not other cells were stained blue due to the action of β-galactosidase on the substrate (FIG. 9).

[6] = tested on: PHA-stimulated lymphocytes (PBMC); experiment: Proliferation of PHA-stimulated lymphocytes (PBMC), flow cytometric cell count; format: cell-based, human; settings: 96 hours, IL-2
Description: Peripheral blood mononuclear cells (PBMC): Human peripheral blood mononuclear cells were isolated by density gradient (Ficoll-Hypaque) (LSM, ICN Biomedicals Inc.). PBMC were stimulated with 5 μg/ml phytohemaglutinin A (PHA) (Sigma) during 24-48 hours in IMDM supplemented with 10% FCS at 37° C. After washing off the PHA, PBMC were incubated with interleukin-2 (IL-2) (10 U/ml) (Genzyme).
(§1) Cells were plated at 10000 per well in 200 μl IMDM medium and incubated with 0-50 μM of the novel compounds (Tab 8), by addition of drug directly to the culture medium and incubated at 37° C. for 96 hours (Tab 8). Absolute cell number was determined by addition of a known concentration Fluoresbrite microspheres (FITC) (Polysciences, Inc.). The absolute number of cells/well was calculated as: {(total number of beads added/well)/(number of beads measured)×(number of measured cells in the gate of interest)}. All analyses were performed with a FACScan (BD), using CELLQuest software (Becton Dickinson).
PHA-stimulated lymphocytes (PBMC) were tested for their cytotoxicity as one of the normal counterparts of the cell lines. Cells were grown for 96 hours in the presence of IL-2 and different concentrations of the novel compounds and cell number was counted on the flow cytometer.

[7] = tested on: T-lymphocyte leukemia Molt3 cell line; experiment: Cell proliferation of Molt3, flow cytometric cell count; format: cell-based, human; settings: 96 hours
Description: (§2) Cell lines: Human leukemic cell lines were obtained from the American Type Culture Collection (ATCC, Rockville, Md., USA). They were cultured in Iscove's Modified Dulbecco's Medium (IMDM) supplemented with 10% heat inactivated fetal calf serum (FCS), 200 U/ml penicillin, 200 μg/ml streptomycin and 1 μg/ml amphotericin B. Cells were cultured in a 5% CO2-95% air fully humidified incubator. For effects on clonogenic output, 1000 cells/well were plated in duplicate in methylcellulose (0.9%), supplemented with 20% FCS for 14 days.
as §1
(§3) Response of the myeloid leukemia KG1 and T-lymphocyte leukemia Molt3 cell lines to the cytostatic effect of the novel compounds was determined using the above-mentioned standardized bead suspension that was used to determine the absolute cell number by flow cytometric (FCM) measurement. Cells were grown in the presence of increasing concentration of the novel compounds.

[8] = tested on: myeloid leukemia KG1 cell line; experiment: Cell proliferation of KG1, flow cytometric cell count; format: cell-based, human; settings: 96 hours; read-out: KG1 IC50
Description: as §2, §1, §3
To determine reversibility of the effects of the novel compounds, cells were plated at 10000 per well and exposed to 0-50 μM of the compounds for the time indicated, followed by washing in phosphate-buffered saline (PBS) (Life Technologies) and reseeded into drug-free medium for 7 additional days. An identical set of cells was plated and exposed to the drugs for 7 additional days. After 7 days (168 hours), the relative cell number was assayed by flow cytometry.

Chain of MMK1 protein kinase (A0AAV1B7B8 1-394): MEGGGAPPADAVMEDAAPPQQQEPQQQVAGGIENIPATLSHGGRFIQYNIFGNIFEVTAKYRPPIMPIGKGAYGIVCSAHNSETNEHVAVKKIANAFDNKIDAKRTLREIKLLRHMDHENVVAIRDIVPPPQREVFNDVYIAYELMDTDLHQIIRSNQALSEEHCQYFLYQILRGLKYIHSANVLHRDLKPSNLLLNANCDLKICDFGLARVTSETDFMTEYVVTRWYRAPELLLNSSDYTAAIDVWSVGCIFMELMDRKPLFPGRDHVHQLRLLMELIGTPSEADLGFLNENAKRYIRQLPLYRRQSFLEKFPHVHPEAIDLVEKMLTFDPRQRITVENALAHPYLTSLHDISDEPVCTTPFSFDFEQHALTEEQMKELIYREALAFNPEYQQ

IC50 [1] [µM] | Compound | GI50 [2] [µM] | EC50 [3] [µM] | GI50 [4] [µM] | also measured
0.25 | CC(C)c1n[nH]c2c(Nc3cccc(Cl)c3)nc(NCCN)nc12 | 16 | 6.7 | 22 | 
0.2 | CC(C)c1n[nH]c2c(Nc3cccc(Cl)c3)nc(NCCCO)nc12 | 15 | 12 | 33 | 
0.28 | CC(C)c1n[nH]c2c(Nc3cccc(Cl)c3)nc(NCCO)nc12 | 18 | 17 | 29 | SENESCENT CELLS (%) HCA25 [5]: 4%; SENESCENT CELLS (%) HCA45 [5]: 4%; SENESCENT CELLS (%) HCA80 [5]: 38%
0.19 | CC(C)c1n[nH]c2c(Nc3cccc(Cl)c3)nc(N(CCO)CCO)nc12 | 21 | 7 | 34 | 
0.03 | CC[C@H](CO)Nc1nc(NCc2ccccc2)c2n[nH]c(C(C)C)c2n1 | 2.4 | 4.5 | 3.2 | 
0.02 | CC(C)c1n[nH]c2c(NCc3ccccc3)nc(NC3CCCCC3N)nc12 (centres unmarked) | 14 | 0.8 | 28 | 
29.3 | Cc1n[nH]c2c(NCc3ccccc3)nc(NCCO)nc12 | 45 | 34 | 47 | 
1.4 | Cc1n[nH]c2c(NCc3ccccc3)nc(NCCCN)nc12 | 32 | 12.4 | 38 | 
0.08 | CC(C)c1n[nH]c2c(Nc3cccc(Cl)c3)nc(NCCCN)nc12 | 15 | 4.5 | 18 | 
0.02 | CC(C)c1n[nH]c2c(NCc3ccccc3)nc(NC3CCC(N)CC3)nc12 (centres unmarked) | 1.5 | 1.1 | 2.3 | 
0.9 | Cc1n[nH]c2c(NCc3ccccc3)nc(NC3CCCCC3N)nc12 (centres unmarked) | 2.3 | 1.2 | 3.2 | 

Further lines, the compound ahead of its results:

Compound | IC50 [1] [µM] | GI50 [2] [µM] | EC50 [3] [µM] | GI50 [4] [µM] | also measured
CC(C)c1n[nH]c2c(NCc3ccccc3)nc(NCCN)nc12 | 1.2 | 26 | 11.5 | 42 | 
CC(C)c1n[nH]c2c(Nc3cccc(Cl)c3)nc(NC3CCCCC3N)nc12 (centres unmarked) | 0.012 | 14 | 0.2 | 28 | 
Cc1n[nH]c2c(NCc3ccccc3)nc(N(CCO)CCO)nc12 | 8.1 | 35 | 25 | 40 | 
CC(C)c1n[nH]c2c(NCc3ccccc3)nc(NCCO)nc12 | 2.3 | 25 | 27 | 37 | 
Nc1c(Cl)ccc(CNc2ncnc3cn[nH]c23)c1N [H / 2,3-diamino-4-chlorobenzylamine / H] |  |  |  |  | SENESCENT CELLS (%) HCA25 [5]: 3%; SENESCENT CELLS (%) HCA45 [5]: 3%; SENESCENT CELLS (%) HCA80 [5]: 18%
Cc1n[nH]c2c(NCc3ccccc3)nc(NCCCO)nc12 | 5.8 | 40 | 28 | 41 | 
CC(C)c1n[nH]c2c(NCc3ccccc3)nc(NCCCO)nc12 | 0.8 | 21 | 21 | 32 | 
CC(C)c1n[nH]c2c(NCc3ccccc3)nc(N[C@@H](CO)C(C)C)nc12 |  | 2.2 | 6.5 | 2.3 | 
CC(C)c1n[nH]c2c(NCc3ccccc3)nc(N(CCO)CCO)nc12 | 1.1 | 25 | 16 | 38 | 
CC(C)c1n[nH]c2c(Nc3cccc(Cl)c3)nc(NC3CCC(N)CC3)nc12 (centres unmarked) | 0.012 | 0.5 | 0.5 | 1.3 | SENESCENT CELLS (%) HCA25 [5]: 4%; SENESCENT CELLS (%) HCA45 [5]: 5%; SENESCENT CELLS (%) HCA80 [5]: 35%
CCC(CO)Nc1nc(NCc2ccc(O)c(O)c2)c2ncn(C(C)C)c2n1 (centres unmarked) [Compound 243, 2-(1-ethyl-2-hydroxyethylamino)-6(3,4-dihydroxybenzylamino)-9-isopropylpurine] |  |  |  |  | IC50 ([6]; Homo sapiens, Lymphocyte): 9 ± 6.6 µM; IC50 ([7]; Homo sapiens, MOLT-3): 9 ± 1.2 µM
Clc1ccc(Nc2ncnc3cn[nH]c23)cc1 [H / 4-chloroanilino / H] |  |  |  |  | SENESCENT CELLS (%) HCA25 [5]: 3%; SENESCENT CELLS (%) HCA45 [5]: 6%; SENESCENT CELLS (%) HCA80 [5]: 27%
Cc1n[nH]c2c(NCc3ccccc3)nc(NC3CCC(N)CC3)nc12 (centres unmarked) | 0.6 | 1.7 | 1.5 | 2.5 | 
CN(Cc1ccc(O)c(O)c1)c1ncnc2cn[nH]c12 |  |  |  |  | SENESCENT CELLS (%) HCA25 [5]: 4%; SENESCENT CELLS (%) HCA45 [5]: 4%; SENESCENT CELLS (%) HCA80 [5]: 22%
Nc1cc(CNc2ncnc3cn[nH]c23)ccc1Cl [H / 3-amino-4-chlorobenzylamine / H] |  |  |  |  | SENESCENT CELLS (%) HCA25 [5]: 4%; SENESCENT CELLS (%) HCA45 [5]: 5%; SENESCENT CELLS (%) HCA80 [5]: 21%
Cc1n[nH]c2c(NCc3ccccc3)nc(NCCN)nc12 [2-aminoethylamino / benzylamino / methyl] | 15 | 35 | 14.7 | 41 | 
CC(C)c1n[nH]c2c(NCc3ccccc3)nc(NCCCN)nc12 |  | 24 | 9.8 | 28 | 
5-(3-hydroxypropylamino)-7[N-(3,4-dihydroxybenzyl-N-methyl]amino-3-isopropylpyrazolo[4,3-d]pyrimidine [Compound 50] |  |  |  |  | IC50 [6]: 15 ± 7.3 µM; IC50 [8]: 21 µM; IC50 [7]: 21 µM
CC(=O)c1ccccc1CNc1ncnc2cn[nH]c12 [H / 2-acetylbenzylamino / H] |  |  |  |  | SENESCENT CELLS (%) HCA25 [5]: 3%; SENESCENT CELLS (%) HCA45 [5]: 5%; SENESCENT CELLS (%) HCA80 [5]: 28%
